# Results reported in article PMC9289130, “Pharmacokinetic Study of Four Major Bioactive Components of Liandan Xiaoyan Formula in Ulcerative Colitis and Control Rats Using UPLC-MS/MS” (Frontiers in Pharmacology, 2022).
# Where two headings read alike, the source gives them in different places.
# Assays:
# [1] = Pharmacokinetic study in control and DSS-induced UC rats after oral administration of LXF (serum, UPLC-MS/MS); format: in vivo, Sprague-Dawley (SD) rats; details: for AUC(0-inf) / AUC(0-t) / Cmax / Tmax / half-life / MRT inf: male, Sprague-Dawley, rat, serum, po, 3.3 g/kg, oral LXF 3.30 g/kg, rat serum, n = 8, mean ± SD; for MRT inf: read-out: MRT0→∞
# Procedure: Sixteen male Sprague-Dawley (SD) rats (220 ± 10 g) were provided from the Liaoning Changsheng Biotechnology Co., Ltd (Benxi, China; with license No. of SCXK, 2020-0001). The rats were kept in an environment (22 ± 2°C, relative humidity 50 ± 5%) under a 12-h light-dark cycle with a free diet and water for 3 days. All experiments on animals were conducted strictly under the related ethics regulations of the Committee on Use and Care of Animals of Guangzhou University of Chinese Medicine (Guangzhou, China) (No. 712052).
# All rats were assigned equally and randomly to the control and model groups. The rats of the model group were free to access 4% DSS for 7 days to induce UC, and rats of the control group were given pure water ([Chen et al., 2020]). Before the pharmacokinetics study, the DSS-induced UC rats (model) were established successfully (Supplementary Material Part B).
# After fasting for 12 h, the rats were orally administered LXF at a 3.30 g/kg dose according to Prescription preparation of Chinese medicine, volume 10 ([Lu et al., 2021]). Serum samples (approximately 0.5 ml) were collected from the fosse orbital vein using 1.5 ml polythene tubes before the administration and at 0.083, 0.25, 0.5, 1, 1.5, 2.5, 4, 6, 8, 12, 24, 36, and 48 h after dosing and centrifuged immediately at 3,500 rpm for 15 min. Serum was transferred into clean tubes and stored at −80°C.
# 100 μl of IS solution (960 ng/ml) was added to a 100 μl serum sample and vortex-mixed for 0.5 min, and then 800 μl of methanol was added and vortex-mixed for 3 min. After centrifugation at 12,000 rpm for 15 min (4°C), the supernatant of the mixture was transferred to another vial and evaporated to dryness with nitrogen purging. The residue was resolved with 100 μ of methanol, vortex-mixed for 1 min, and centrifuged at 12,000 rpm for 10 min (4°C). A 2 μl aliquot of the supernatant was injected into the UPLC-MS/MS system for analysis.
# Chromatographic analysis was performed using UPLC-MS/MS, utilizing a Finnigan Surveyor auto-sampler and a Finnigan Surveyor LC pump combined with a triple quadrupole TSQ Quantum mass spectrometer electrospray ionization (ESI) interface (Thermo Fisher, Palo Alto, CA). The chromatographic separation was performed on the Waters Acquity UPLC BEH C18 column (2.1 mm × 100 mm; 1.7 µm). The mobile phase consisted of acetonitrile (A) and 0.1% formic acid (B) with a gradient elution program (0-5 min, 20% A-35% A; 5-6 min, 35% A-100% A; 6–8min, 100% A; 8–8.5 min, 100% A-20% A; 8.5–10.5 min, 20% A) at a flow rate of 0.4 ml/min. The column temperature was maintained at 40°C throughout the analysis. The injection volume was 2 μl.
# Quantification was performed using multiple reaction monitoring (MRM) in the positive ionization mode, and the optimized MRM parameters of the four analytes and IS are listed in Table 1. The MRM transition, retention time (RT), and collision energy (CE) values were based on Thermo Foundation 2.0. Curtain gas pressure at 35 psi, ion source gas 1 and gas 2 at 55 psi, ion spray voltage at 5500 V, and temperature at 500°C.
# Non-compartment model pharmacokinetic parameters, including the time to reach the maximum serum concentration (Tmax), the maximum serum concentration (Cmax), the elimination half-time (T1/2), the area under the serum concentration-time curve (AUC), and mean residence time (MRT), were calculated by DAS (version 3.2.8, Chinese Pharmacological Association, Anhui, China). The difference between the control and model groups was statistically analyzed using SPSS 26.0 (IBM Company, Chicago). All data in this study were subjected to a one-way analysis of variance (ANOVA) and then expressed by mean ± standard deviation (SD). LSD t-test was applied when the homogeneity of variance assumptions was satisfied; otherwise, Dunnett’s t-test was used. A p < 0.05 was considered statistically significant.
# [2] = Stability test of QC samples in rat serum; format: in vitro ADME; details: n = 6
# Procedure: Quality control (QC) samples at low, middle and high concentrations (61.50, 384.38, and 4,000.00 ng/ml for andrographolide; 24.00, 150.00, and 1,500.00 ng/ml for dehydroandrographolide; 6.91, 43.20, and 450.00 ng/ml for 1-methoxicabony-β-carboline; 6.30, 39.38, and 400.00 ng/ml for 4-methoxy-5-hydroxy-canthin-6-one) were also prepared by the same procedures.
# Recovery was determined at three QC levels and calculated by comparing the compound standard peak areas obtained from extracted samples with post-extracted samples spiked with the compound. Matrix effects were calculated by matching spiking post-extracted blank serum samples with corresponding standard clean solutions at three concentrations of QC samples.
# [3] = 4°C for 24 h, high QC (nominal 4,000.00 / 1,500.00 / 450.00 / 400.00 ng/ml for compounds 1-4)
# [4] = 4°C for 24 h, low QC (nominal 61.50 / 24.00 / 6.91 / 6.30 ng/ml for compounds 1-4)
# [5] = 4°C for 24 h, middle QC (nominal 384.38 / 150.00 / 43.20 / 39.38 ng/ml for compounds 1-4)
# [6] = 25°C for 12 h, high QC (nominal 4,000.00 / 1,500.00 / 450.00 / 400.00 ng/ml for compounds 1-4)
# [7] = 25°C for 12 h, low QC (nominal 61.50 / 24.00 / 6.91 / 6.30 ng/ml for compounds 1-4)
# [8] = 25°C for 12 h, middle QC (nominal 384.38 / 150.00 / 43.20 / 39.38 ng/ml for compounds 1-4)
# [9] = three freeze-thaw, high QC (nominal 4,000.00 / 1,500.00 / 450.00 / 400.00 ng/ml for compounds 1-4)
# [10] = three freeze-thaw, low QC (nominal 61.50 / 24.00 / 6.91 / 6.30 ng/ml for compounds 1-4)
# [11] = three freeze-thaw, middle QC (nominal 384.38 / 150.00 / 43.20 / 39.38 ng/ml for compounds 1-4)
# [12] = −80°C for 30 days, high QC (nominal 4,000.00 / 1,500.00 / 450.00 / 400.00 ng/ml for compounds 1-4)
# [13] = −80°C for 30 days, low QC (nominal 61.50 / 24.00 / 6.91 / 6.30 ng/ml for compounds 1-4)
# [14] = −80°C for 30 days, middle QC (nominal 384.38 / 150.00 / 43.20 / 39.38 ng/ml for compounds 1-4)
SMILES,AUC(0-inf) ([1]; UC group (4% DSS for 7 days)) [ng·h/mL],AUC(0-t) ([1]; UC group (4% DSS for 7 days)) [ng·h/mL],Cmax ([1]; UC group (4% DSS for 7 days)) [ng/mL],Tmax ([1]; UC group (4% DSS for 7 days)) [h],half-life ([1]; UC group (4% DSS for 7 days)) [h],MRT inf ([1]; UC group (4% DSS for 7 days)) [h],AUC(0-inf) ([1]; control group) [ng·h/mL],AUC(0-t) ([1]; control group) [ng·h/mL],Cmax ([1]; control group) [ng/mL],Tmax ([1]; control group) [h],half-life ([1]; control group) [h],MRT inf ([1]; control group) [h],"Stability, mean concentration found [2, 3]","Stability, mean concentration found [2, 4] [ng/mL]","Stability, mean concentration found [2, 5] [ng/mL]","Stability, mean concentration found [2, 6]","Stability, mean concentration found [2, 7] [ng/mL]","Stability, mean concentration found [2, 8] [ng/mL]","Stability, mean concentration found [2, 9]","Stability, mean concentration found [2, 10] [ng/mL]",further results
COC(=O)c1nccc2c1[nH]c1ccccc12 [1-methoxicabony-β-carboline],444 ± 154,424 ± 143,160 ± 18.9,1.13 ± 0.23,1.2 ± 0.41,2.23 ± 0.63,219 ± 79.2,215 ± 78.4,129 ± 33.9,0.69 ± 0.37,1.02 ± 0.43,1.52 ± 0.33,442.09 ± 15.98 ng/mL,7.71 ± 0.12,44.64 ± 3.27,439.66 ± 16.78 ng/mL,7.09 ± 0.16,42.21 ± 3.37,440.84 ± 17.31 ng/mL,6.63 ± 0.51,"Tmax and MRT0–∞ in the UC group compared with the control group ([1]; oral LXF, p < 0.05): longer; Stability, mean concentration found [2, 11]: 42.04 ± 2.18 ng/mL; Stability, mean concentration found [2, 12]: 436.91 ± 13.57 ng/mL; Stability, mean concentration found [2, 13]: 7.43 ± 0.66 ng/mL; Stability, mean concentration found [2, 14]: 42.66 ± 1.92 ng/mL"
COc1c(O)c(=O)n2c3ccccc3c3ccnc1c32 [4-methoxy-5-hydroxy-canthin-6-one],817 ± 177,759 ± 142,419 ± 104,0.43 ± 0.47,3.3 ± 1.52,3.66 ± 1.55,595 ± 117,554 ± 74.2,395 ± 97.7,0.08,3.15 ± 0.96,3.59 ± 1.43,391.53 ± 10.08 ng/mL,6.38 ± 0.41,39.35 ± 4.12,387.02 ± 9.84 ng/mL,5.50 ± 0.37,40.41 ± 3.15,386.59 ± 20.07 ng/mL,5.65 ± 0.12,"Shape of the serum concentration-time curve ([1]; UC group, oral LXF): double peaks; Shape of the serum concentration-time curve ([1]; control group, oral LXF): not showed; Stability, mean concentration found [2, 11]: 41.43 ± 0.76 ng/mL; Stability, mean concentration found [2, 12]: 381.78 ± 17.23 ng/mL; Stability, mean concentration found [2, 13]: 6.39 ± 0.23 ng/mL; Stability, mean concentration found [2, 14]: 42.93 ± 1.44 ng/mL"
C=C1CC[C@@H]2[C@](C)(CO)[C@H](O)CC[C@@]2(C)[C@@H]1C/C=C1/C(=O)OC[C@H]1O [andrographolide],18400,15900,4090,0.69 ± 0.26,7.4 ± 5.02,7.4 ± 5.02,7120,6430,2310,0.53 ± 0.21,8.77 ± 2.96,8.42 ± 2.75,"3,915.74 ± 98.45 ng/mL",58.54 ± 4.47,383.22 ± 9.64,"3,896.61 ± 129.89 ng/ml",56.68 ± 4.20,399.59 ± 9.79,"3,923.07 ± 110.39 ng/mL",60.13 ± 3.34,"Stability, mean concentration found [2, 11]: 396.68 ± 13.05 ng/mL; Stability, mean concentration found [2, 12]: 3,904.68 ± 126.18 ng/ml; Stability, mean concentration found [2, 13]: 58.97 ± 2.93 ng/mL; Stability, mean concentration found [2, 14]: 370.23 ± 17.30 ng/mL"
C=C1CC[C@@H]2[C@](C)(CO)[C@H](O)CC[C@@]2(C)[C@H]1C/C=C1\C=COC1=O [dehydroandrographolide],4790,4690,1150,0.38 ± 0.13,2.86 ± 2.01,5.08 ± 1.53,2360,2330,892 ± 148,0.28 ± 0.09,2.28 ± 1.69,5.04 ± 1.96,"1,421.52 ± 61.75 ng/mL",25.71 ± 1.69,156.59 ± 14.58,"1,439.13 ± 52.46 ng/ml",23.51 ± 0.69,153.93 ± 10.00,"1,428.09 ± 67.73 ng/mL",21.20 ± 2.30,"Shape of the serum concentration-time curve ([1]; UC group, oral LXF): double peaks; Shape of the serum concentration-time curve ([1]; control group, oral LXF): double peaks; Stability, mean concentration found [2, 11]: 143.60 ± 9.61 ng/mL; Stability, mean concentration found [2, 12]: 1,419.63 ± 51.60 ng/ml; Stability, mean concentration found [2, 13]: 22.46 ± 2.57 ng/mL; Stability, mean concentration found [2, 14]: 151.06 ± 3.31 ng/mL"
